Results: article PMC11084299 (International Journal of Molecular Sciences, 2024)

B1: Homo sapiens tyrosyl-tRNA synthetase (enzyme, UniProt P54577 1-528, looked up)
chain: MGDAPSPEEKLHLITRNLQEVLGEEKLKEILKERELKIYWGTATTGKPHVAYFVPMSKIADFLKAGCEVTILFADLHAYLDNMKAPWELLELRVSYYENVIKAMLESIGVPLEKLKFIKGTDYQLSKEYTLDVYRLSSVVTQHDSKKAGAEVVKQVEHPLLSGLLYPGLQALDEEYLKVDAQFGGIDQRKIFTFAEKYLPALGYSKRVHLMNPMVPGLTGSKMSSSEEESKIDLLDRKEDVKKKLKKAFCEPGNVENNGVLSFIKHVLFPLKSEFVILRDEKWGGNKTYTAYVDLEKDFAAEVVHPGDLKNSVEVALNKLLDPIREKFNTPALKKLASAAYPDPSKQKPMAKGPAKNSEPEEVIPSRLDIRVGKIITVEKHPDADSLYVEKIDVGEAEPRTVVSGLVQFVPKEELQDRLVVVLCNLKPQKMRGVESQGMLLCASIEGINRQVEPLDPPAGSAPGEHVFVKGYEKGQPDEELKPKKKVFEKLQADFKISEECIAQWKQTNFMTKLGSISCKSLKGGNIS
notes: Tyrosyl-tRNA synthetase, human, in pET28a; about 64 kDa on SDS-PAGE; No tag cleavage is described; also called HsTyrRS; HsTysRS; source: E. coli, purified (Ni column, ion exchange Q HP, size exclusion chromatography)
B2: Plasmodium falciparum tyrosyl-tRNA synthetase (enzyme, UniProt Q8IAR7 1-373, looked up)
chain: METTDTKREEQEIEEKKAQEESKIEDVDKILNDILSISSECIQPDELRVKLLLKRKLICYDGFEPSGRMHIAQGLLKSIIVNKLTSNGCTFIFWIADWFAHLNNKMSGDLKKIKKVGSYFIEVWKSCGMNMENVQFLWASEEINKKPNEYWSLVLDISRSFNINRMKRCLKIMGRSEGEENYCSQILYPCMQCADIFFLNVDICQLGIDQRKVNMLAREYCDIKKIKKKPVILSHGMLPGLLEGQEKMSKSDENSAIFMDDSESDVNRKIKKAYCPPNVIENNPIYAYAKSIIFPSYNEFNLVRKEKNGGDKTYYTLQELEHDYVNGFIHPLDLKDNVAMYINKLLQPVRDHFQNNIEAKNLLNEIKKYKVTK
notes: Tyrosyl-tRNA synthetase of Plasmodium falciparum, gene ID PF3D7-0807900, synthesized gene in pET28a; about 47 kDa on SDS-PAGE; No tag cleavage is described; The same protein was later captured on Ni-NTA biosensors for BLI with okanin, so the His tag was probably still present in the gel filtration; also called PfTyrRS; PfTysRS; source: E. coli BL21, purified (Ni-NTA, HiTrap Q HP, Superdex 200 …)

Tests used:
[1] = biological target: T1, Plasmodium falciparum tyrosyl-tRNA synthetase (PfTyrRS) (Plasmodium falciparum, UniProt Q8IAR7); test: bio-layer interferometry (Ni-NTA biosensors, immobilized PfTyrRS); supported by ATP hydrolysis inhibition (IC50 […]), TSA and limited proteolysis; format: binding
T1 construct: gene PF3D7_0807900; recombinant PfTyrRS (PF3D7-0807900), C-terminal 10 × His tag, ~47 kDa, homodimer

[2] = biological target: T2, Homo sapiens tyrosyl-tRNA synthetase (HsTyrRS) (Homo sapiens, UniProt P54577); test: ATP hydrolysis (consumption) assay, luciferin/luciferase luminescence, purified enzyme; format: biochemical
T2 construct: gene YARS1; recombinant HsTyrRS, C-terminal 10 × His tag, ~64 kDa, homodimer
T2 sequence (P54577 1-528): B1 chain

[3] = biological target: the molecule itself; test: SEC; Superdex 200 Increase 10/300 GL, final purification step; oligomeric state from the apparent molecular weight at the elution volume

Molecule	Kd [1] [nM]	IC50 [2] [µM]	stoichiometry N [3]
O=C(/C=C/c1ccc(O)c(O)c1)c1ccc(O)c(O)c1O [okanin]	290	38.2 ± 2.71	
B1			2
B2			2
